Values quoted from earlier work as cited in patent US9314468B2, “Chemokine receptor modulators” (Altiris Therapeutics, Inc., priority 2008, dated 2016).

Columns and labels:
HIV = details: MT-4 cells; read-out: concentration required for 50% protection of HIV-induced cytopathogenicity; cited from earlier work
MT-4 cells = details: cited from earlier work
[1] = in vivo; cited from earlier work

| Compound | EC50 (HIV) | concentration leading to 50% toxicity (MT-4 cells) | side effect in clinical study [1] |
| --- | --- | --- | --- |
| TN14003 | 0.6 nM | 410 |  |
| c1cc(CN2CCCNCCNCCCNCC2)ccc1CN1CCCNCCNCCCNCC1 [AMD3100] |  |  | cardiac-related side effect |
